From patent US10131652B2, “Pyrimidinyloxy benzene derivatives as herbicides” (E. I. DU PONT DE NEMOURS AND COMPANY, priority 2014, dated 2018)

How the values were obtained:
Assay in all cases: Test D pre-/postemergence plant response
Assay type in all cases: in vivo
[1] = test system: blackgrass (Alopecurus myosuroides)
Summary of the method: (§1)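 Visual rating, 0–100 scale (0 = no effect, 100 = complete control), versus untreated controls 13 to 15 days after treatment in greenhouse. Preemergence: seeds in loam/sand soil. Postemergence: 2 to 18 cm plants, 1- to 4-leaf stage, peat-based medium. Compounds formulated in non-phytotoxic solvent plus surfactant.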

[2] = test system: waterhemp (common waterhemp, Amaranthus rudis)
Summary of the method: as §1

corn (Zea mays) = test system: corn (Zea mays)
Summary of the method: as §1

soybean (Glycine max) = test system: soybean (Glycine max)
Summary of the method: as §1

[3] = test system: large (Lg) crabgrass (Digitaria sanguinalis)
Summary of the method: as §1

[4] = test system: yellow nutsedge (Cyperus esculentus)
Summary of the method: as §1

[5] = test system: lambsquarters (Chenopodium album)
Summary of the method: as §1

[6] = test system: oilseed rape (Brassica napus)
Summary of the method: as §1

[7] = test system: barnyardgrass (Echinochloa crus-galli)
Summary of the method: as §1

[8] = test system: pigweed (Amaranthus retroflexus)
Summary of the method: as §1

[9] = test system: winter wheat (Triticum aestivum)
Summary of the method: as §1

[10] = test system: galium (catchweed bedstraw, Galium aparine)
Summary of the method: as §1

[11] = test system: Italian ryegrass (Lolium multiflorum)
Summary of the method: as §1

[12] = test system: morningglory (Ipomoea coccinea)
Summary of the method: as §1

[13] = test system: velvetleaf (Abutilon theophrasti)
Summary of the method: as §1

[14] = test system: ragweed (common ragweed, Ambrosia elatior)
Summary of the method: as §1

[15] = test system: giant foxtail (Setaria faberii)
Summary of the method: as §1

[16] = test system: johnsongrass (Sorghum halepense)
Summary of the method: as §1

[17] = Postemergence, 16 g ai/ha, scale 0 to 100 (0 no effect, 100 complete control)
[18] = Postemergence, 31 g ai/ha, scale 0 to 100 (0 no effect, 100 complete control)
[19] = Postemergence, 62 g ai/ha, scale 0 to 100, 0 no effect, 100 complete control
[20] = Postemergence, 125 g ai/ha, scale 0 to 100, 0 no effect, 100 complete control
[21] = Preemergence, 16 g ai/ha, scale 0 to 100 (0 no effect, 100 complete control)
[22] = Preemergence, 31 g ai/ha, scale 0 to 100 (0 no effect, 100 complete control)
[23] = Preemergence, 62 g ai/ha, scale 0 to 100 (0 no effect, 100 complete control)

`Fc1ccc(Oc2ncc(Cl)cn2)c(-c2cc(C(F)F)on2)c1F` [Compound 113] was tested, and the “Blackgrass plant response rating” value [1, 17] was 5, the “Blackgrass plant response rating” value [1, 18] was 15 and the “Plant response rating, Blackgrass” value [1, 19] was 10. For the same compound, the “Plant response rating, Blackgrass” value [1, 20] was 40, the “Plant response rating (scale 0 to 100), Blackgrass” value ([1]; Preemergence, 125 g ai/ha) was 80 and the “Plant response rating, Blackgrass” value [1, 21] was 10. For the same compound, the “Plant response rating, Blackgrass” value [1, 22] was 40, the “Plant response rating, Blackgrass” value [1, 23] was 70 and the “Waterhemp plant response rating” value [2, 17] was 85. The “Waterhemp plant response rating” value [2, 18] was 80, the “Plant response rating, Waterhemp” value [2, 19] was 85 and the “Plant response rating, Waterhemp” value [2, 20] was 90. The “Plant response rating (scale 0 to 100), Waterhemp” value ([2]; Preemergence, 125 g ai/ha) was 100, the “Plant response rating, Waterhemp” value [2, 21] was 100 and the “Plant response rating, Waterhemp” value [2, 22] was 100. The “Plant response rating, Waterhemp” value [2, 23] was 100, the “Corn plant response rating” value (corn (Zea mays); [17]) was 5 and the “Corn plant response rating” value (corn (Zea mays); [18]) was 10. For the same compound, the “Plant response rating, Corn” value (corn (Zea mays); [19]) was 20, the “Plant response rating, Corn” value (corn (Zea mays); [20]) was 25 and the “Plant response rating (scale 0 to 100), Corn” value (corn (Zea mays); Preemergence, 125 g ai/ha) was 40. For the same compound, the “Plant response rating, Corn” value (corn (Zea mays); [21]) was 0, the “Plant response rating, Corn” value (corn (Zea mays); [22]) was 0 and the “Plant response rating, Corn” value (corn (Zea mays); [23]) was 25. For the same compound, the “Soybean plant response rating” value (soybean (Glycine max); [17]) was 80, the “Soybean plant response rating” value (soybean (Glycine max); [18]) was 55 and the “Plant response rating, Soybean” value (soybean (Glycine max); [19]) was 65. The “Plant response rating, Soybean” value (soybean (Glycine max); [20]) was 75, the “Plant response rating (scale 0 to 100), Soybean” value (soybean (Glycine max); Preemergence, 125 g ai/ha) was 80 and the “Plant response rating, Soybean” value (soybean (Glycine max); [21]) was 35. For the same compound, the “Plant response rating, Soybean” value (soybean (Glycine max); [22]) was 40, the “Plant response rating, Soybean” value (soybean (Glycine max); [23]) was 90 and the “Crabgrass, Large plant response rating” value [3, 17] was 10. The “Crabgrass, Large plant response rating” value [3, 18] was 20, the “Plant response rating, Crabgrass, Large” value [3, 19] was 25 and the “Plant response rating, Crabgrass, Large” value [3, 20] was 25. The “Plant response rating (scale 0 to 100), Crabgrass, Large” value ([3]; Preemergence, 125 g ai/ha) was 100, the “Plant response rating, Crabgrass, Large” value [3, 21] was 98 and the “Plant response rating, Crabgrass, Large” value [3, 22] was 100. The “Plant response rating, Crabgrass, Large” value [3, 23] was 100, the “Nutsedge, Yellow plant response rating” value [4, 17] was 5 and the “Nutsedge, Yellow plant response rating” value [4, 18] was 5. The “Plant response rating, Nutsedge, Yellow” value [4, 19] was 5, the “Plant response rating, Nutsedge, Yellow” value [4, 20] was 15 and the “Plant response rating (scale 0 to 100), Nutsedge, Yellow” value ([4]; Preemergence, 125 g ai/ha) was 60. The “Plant response rating, Nutsedge, Yellow” value [4, 21] was 0, the “Plant response rating, Nutsedge, Yellow” value [4, 22] was 10 and the “Plant response rating, Nutsedge, Yellow” value [4, 23] was 15. The “Lambsquarters plant response rating” value [5, 17] was 70, the “Lambsquarters plant response rating” value [5, 18] was 85 and the “Plant response rating, Lambsquarters” value [5, 19] was 95. For the same compound, the “Plant response rating, Lambsquarters” value [5, 20] was 90, the “Plant response rating (scale 0 to 100), Lambsquarters” value ([5]; Preemergence, 125 g ai/ha) was 98 and the “Plant response rating, Lambsquarters” value [5, 21] was 85. The “Plant response rating, Lambsquarters” value [5, 22] was 98, the “Plant response rating, Lambsquarters” value [5, 23] was 98 and the “Oilseed Rape plant response rating” value [6, 17] was 80. For the same compound, the “Oilseed Rape plant response rating” value [6, 18] was 50, the “Plant response rating, Oilseed Rape” value [6, 19] was 90 and the “Plant response rating, Oilseed Rape” value [6, 20] was 90. For the same compound, the “Plant response rating (scale 0 to 100), Oilseed Rape” value ([6]; Preemergence, 125 g ai/ha) was 100, the “Plant response rating, Oilseed Rape” value [6, 21] was 98 and the “Plant response rating, Oilseed Rape” value [6, 22] was 100. The “Plant response rating, Oilseed Rape” value [6, 23] was 100, the “Barnyardgrass plant response rating” value [7, 17] was 10 and the “Barnyardgrass plant response rating” value [7, 18] was 15. The “Plant response rating, Barnyardgrass” value [7, 19] was 20, the “Plant response rating, Barnyardgrass” value [7, 20] was 25 and the “Plant response rating (scale 0 to 100), Barnyardgrass” value ([7]; Preemergence, 62 g ai/ha) was 98. For the same compound, the “Plant response rating (scale 0 to 100), Barnyardgrass” value ([7]; Preemergence, 125 g ai/ha) was 100, the “Plant response rating, Barnyardgrass” value [7, 21] was 30 and the “Plant response rating, Barnyardgrass” value [7, 22] was 95. The “Pigweed plant response rating” value [8, 17] was 90, the “Pigweed plant response rating” value [8, 18] was 90 and the “Plant response rating, Pigweed” value [8, 19] was 95. For the same compound, the “Plant response rating, Pigweed” value [8, 20] was 100, the “Plant response rating (scale 0 to 100), Pigweed” value ([8]; Preemergence, 125 g ai/ha) was 100 and the “Plant response rating, Pigweed” value [8, 21] was 100. For the same compound, the “Plant response rating, Pigweed” value [8, 22] was 100, the “Plant response rating, Pigweed” value [8, 23] was 100 and the “Wheat plant response rating” value [9, 17] was 0. For the same compound, the “Wheat plant response rating” value [9, 18] was 0, the “Plant response rating, Wheat” value [9, 19] was 5 and the “Plant response rating, Wheat” value [9, 20] was 5. The “Plant response rating (scale 0 to 100), Wheat” value ([9]; Preemergence, 125 g ai/ha) was 20, the “Plant response rating, Wheat” value [9, 21] was 0 and the “Plant response rating, Wheat” value [9, 22] was 5. The “Plant response rating, Wheat” value [9, 23] was 10, the “Galium plant response rating” value [10, 17] was 80 and the “Galium plant response rating” value [10, 18] was 80. The “Plant response rating, Galium” value [10, 19] was 90, the “Plant response rating, Galium” value [10, 20] was 90 and the “Plant response rating (scale 0 to 100), Galium” value ([10]; Preemergence, 125 g ai/ha) was 90. For the same compound, the “Plant response rating, Galium” value [10, 21] was 90, the “Plant response rating, Galium” value [10, 22] was 90 and the “Plant response rating, Galium” value [10, 23] was 98. For the same compound, the “Ryegrass, Italian plant response rating” value [11, 17] was 5, the “Ryegrass, Italian plant response rating” value [11, 18] was 5 and the “Plant response rating, Ryegrass, Italian” value [11, 19] was 5. The “Plant response rating, Ryegrass, Italian” value [11, 20] was 5, the “Plant response rating (scale 0 to 100), Ryegrass, Italian” value ([11]; Preemergence, 125 g ai/ha) was 70 and the “Plant response rating, Ryegrass, Italian” value [11, 21] was 5. For the same compound, the “Plant response rating, Ryegrass, Italian” value [11, 22] was 10, the “Plant response rating, Ryegrass, Italian” value [11, 23] was 60 and the “Morningglory plant response rating” value [12, 17] was 85. The “Morningglory plant response rating” value [12, 18] was 75, the “Plant response rating, Morningglory” value [12, 19] was 85 and the “Plant response rating, Morningglory” value [12, 20] was 80. For the same compound, the “Plant response rating (scale 0 to 100), Morningglory” value ([12]; Preemergence, 125 g ai/ha) was 95, the “Plant response rating, Morningglory” value [12, 21] was 20 and the “Plant response rating, Morningglory” value [12, 22] was 35. For the same compound, the “Plant response rating, Morningglory” value [12, 23] was 85, the “Velvetleaf plant response rating” value [13, 17] was 60 and the “Velvetleaf plant response rating” value [13, 18] was 60. The “Plant response rating, Velvetleaf” value [13, 19] was 70, the “Plant response rating, Velvetleaf” value [13, 20] was 70 and the “Plant response rating (scale 0 to 100), Velvetleaf” value ([13]; Preemergence, 125 g ai/ha) was 100. The “Plant response rating, Velvetleaf” value [13, 21] was 70, the “Plant response rating, Velvetleaf” value [13, 22] was 85 and the “Plant response rating, Velvetleaf” value [13, 23] was 100. For the same compound, the “Ragweed plant response rating” value [14, 17] was 80, the “Ragweed plant response rating” value [14, 18] was 60 and the “Plant response rating, Ragweed” value [14, 19] was 90. For the same compound, the “Plant response rating, Ragweed” value [14, 20] was 90, the “Plant response rating (scale 0 to 100), Ragweed” value ([14]; Preemergence, 125 g ai/ha) was 90 and the “Plant response rating, Ragweed” value [14, 21] was 40. For the same compound, the “Plant response rating, Ragweed” value [14, 22] was 55, the “Plant response rating, Ragweed” value [14, 23] was 85 and the “Foxtail, Giant plant response rating” value [15, 17] was 5. The “Foxtail, Giant plant response rating” value [15, 18] was 5, the “Plant response rating, Foxtail, Giant” value [15, 19] was 10 and the “Plant response rating, Foxtail, Giant” value [15, 20] was 10. The “Plant response rating (scale 0 to 100), Foxtail, Giant” value ([15]; Preemergence, 125 g ai/ha) was 100, the “Plant response rating, Foxtail, Giant” value [15, 21] was 85 and the “Plant response rating, Foxtail, Giant” value [15, 22] was 100. The “Plant response rating, Foxtail, Giant” value [15, 23] was 100, the “Johnsongrass plant response rating” value [16, 17] was 5 and the “Johnsongrass plant response rating” value [16, 18] was 5. For the same compound, the “Plant response rating, Johnsongrass” value [16, 19] was 5, the “Plant response rating, Johnsongrass” value [16, 20] was 10 and the “Plant response rating (scale 0 to 100), Johnsongrass” value ([16]; Preemergence, 125 g ai/ha) was 100. For the same compound, the “Plant response rating, Johnsongrass” value [16, 21] was 10, the “Plant response rating, Johnsongrass” value [16, 22] was 70 and the “Plant response rating, Johnsongrass” value [16, 23] was 90.
